We go through six compounds from US20170056422A1, “PLASMODIUM LIVER-STAGE INHIBITORS AND RELATED METHODS” (Seattle Biomedical Research Institute, priority 2014, published 2017).

Data set [1] concerns P. yoelii LS parasites. As to the kind of experiment: Quantification of LS parasites in P. yoelii-infected Hepa 1-6 cells by manual counting. The data set is classed as cell-based, Plasmodium yoelii. Conditions: for LS burden: 100 nM, 24 or 48 hours; for effect of adding pan-caspase inhibitor qVD-OPh on the LS reduction by the drug: qVD-OPh 20 μM. As for the experimental part:
Quantification of LS parasites after ABT-737, ABT-199, Obatoclax, Nutlin-3, or Serdemetan treatment by manual counting. In all, 1.5×10^5 Hepa 1-6 cells were seeded in DMEM complete medium in each well of an eight-well Permanox slide. Cells were infected with 5×10^4 P. yoelii sporozoites. Slides were centrifuged for 3 min at 515× g in a hanging-bucket centrifuge to aid in sporozoite invasion. After 90 min, we removed media that contained sporozoites that had not infected the cells and added fresh media only, or media containing ABT-737 (100 nM), ABT-199 (100 nM), Obatoclax (100 nM), Nutlin-3 (20 μM), or Serdemetan (10 μM) with or without qVD-OPh (20 μM). We allowed LSs to develop for 24 hours or 48 hours, at which time cells were fixed with 4% paraformaldehyde, blocked, and permeabilized for 1 hour in PBS with the addition of 0.1% Triton X-100 and 2% BSA. Staining steps were performed in PBS supplemented with 2% BSA. We stained cells using anti-sera to Plasmodium HSP70 and UIS4 proteins at 4° C. overnight and then washed several times, and antibodies were visualized with the use of AlexaFluor-488 goat anti-mouse and AlexaFluor-594 goat anti-rabbit secondary antibody (Life Technologies, Grand Island, N.Y., USA). We used DAPI stain to visualize both hepatocyte and parasite nuclei. Sporozoites that had not invaded and/or developed in hepatoma cells were distinguished by UIS4 circumferential staining and morphology. All LS parasites in each well were counted, and each assay was performed in biological triplicate.

A further data set has as its system p53. In words: Quantification of p53 by Western blotting in Hepa 1-6 cells. The data set is classed as cell-based. Conditions: immunoblot, 24 or 48 hours. Here is the method:
Quantification of p53 by Western Blotting. We plated 10^6 Hepa 1-6 cells per well of a 6-well plate in DMEM complete media and treated with complete media only, 20 μM Nutlin-3, 100 nM ABT-737, 100 nM Obatoclax, or 10 μM Serdemetan for 24 or 48 hours. Cells were lysed in SDS lysis buffer (2% SDS, 50 mM Tris-HCl, 5% glycerol, 5 mM EDTA, 1 mM NaF, 10 mM β-glycerophosphate, 1 mM PMSF, 1 mM activated Na3VO4, 1 mM DTT, 1% phosphatase inhibitor cocktail 2; Sigma-Aldrich), 1% PhosSTOP Phosphatase Inhibitor Cocktail Tablet (Roche), filtered overnight at 3000 rpm through AcroPrep Advance Filter Plates (Pall Corporation) and stored at −80° C. Western blots were performed according to manufacturer instruction with the iBlot Dry Transfer System (Life Technologies, Carlsbad, Calif., USA) using an antibody to p53 (Clone 1C12; Cell Signaling Technology) and then normalized to signal from an anti-β-actin (Cell Signaling Technology) Western blot. Signals from immunoblots were detected using either an Alexa 680-conjugated anti-rabbit antibody or an Alexa 800-conjugated anti-mouse antibody (LI-COR Biosciences). Membranes were visualized using an Odyssey infrared imaging system (LI-COR Biosciences).
On the technique in general: A western blot detects proteins with antibodies after separation by electrophoresis.

In data set [2] the test system is Hepa 1-6 cells. As to the kind of experiment: Cell permeabilization (cell death) assay, flow cytometry. The data set is classed as cell-based. Conditions: 48 hour treatment.
Experimental: Cell Permeabilization Assay. Hepa 1-6 cells were seeded in a 24-well tissue culture-treated plate at 3×10^5 cells per well overnight. […] Briefly, cells were stained live with reconstituted dye (1:500) in 500 μL PBS on ice for 30 minutes, mixing periodically, washed twice with 500 μL PBS, and then fixed with 100 μL BD Cytofix/Cytoperm™ fixation/permeabilization (BD Biosciences, San Jose, Calif., USA) solution for 15 minutes on ice. Cells were stored in 200 μL 5 mM EDTA in PBS at 4° C. until analyzed using a BD™ LSR II flow cytometer (BD Biosciences) at 605 nm on the violet 405 nm laser, and resulting FCS files were analyzed with FlowJo 7.6.1 (Tree Star, Ashland, Oreg., USA).
Data set [3] relates to P. yoelii. As to the kind of experiment: Nutlin-3 and Obatoclax in vivo, blood stage patency in BALB/cJ mice. As to conditions: Nutlin-3 200 mg/kg twice daily, Obatoclax 5 mg/kg once daily; 1000 or 100 spz i.v. Here is the method:
Nutlin-3 and Obatoclax in vivo experiments. 60 BALB/cJ mice (Jackson Laboratory, Bar Harbor, Me., USA) were treated with either vehicle control 5 mg/kg of Obatoclax, 200 mg/kg Nutlin-3, or both Obatoclax and Nutlin-3 by oral gavage once (Obatoclax) or twice (Nutlin-3) daily for 3 days. On the second day of treatment, mice were injected with 1000 or 100 P. yoelii sporozoites. Patency was checked by Giemsa-stained thin blood smear daily for the first 7 days, then every other day until day 14. Animal handling was conducted according to the Institutional Animal Care and Use Committee-approved protocols.

Data set [4] concerns P. yoelii. As to the kind of experiment: Specific action of Nutlin-3 in vivo, patency in wild-type and liver-specific p53 knockout mice. As to conditions: 1000 spz. The text has this: Specific Action of Nutlin-3 in vivo experiment. Liver-specific p53 knock-out mice were generated by breeding p53 floxed mice (B6.129P2-Trp53tm1Brn/J) and cre-albumin (B6.Cg-Tg(Alb-cre)21Mgn/J). P53 floxed/unfloxed alleles were identified by size of band on a 2% agarose gel (270 bp for WT, 390 bp for floxed) using the primers: forward—[…] (SEQ ID NO:1) and reverse—[…] (SEQ ID NO:2). Cre was identified by the presence/absence of the mutant allele (heterozygotes vs. homozygotes were not distinguished) using the primers: forward—[…] (SEQ ID NO:3) and reverse—[…] (SEQ ID NO:4). All DNA was extracted using Qiagen DNEasy Blood & Tissue Kit (Qiagen Inc., Valencia, Calif., USA) per manufacturer's protocol. PCR was performed using BioMix Red (2×) from BioLine (BioLine USA Inc., Taunton, Mass., USA).
Both wild-type p53 (cre-alb) and liver-specific p53 knockout mice (cre-alb/flox-p53) were treated with either vehicle or Nutlin-3 as described in the previous in vivo method. On the second day of treatment, all mice were infected i.v. with 1000 P. yoelii sporozoites. Patency was checked by Giemsa-stained thin blood smear daily until all mice became patent. Animal handling was conducted according to the Institutional Animal Care and Use Committee-approved protocols.

For data set [5] the following is noted: cited from earlier work.
Data set [6] relates to P. yoelii LS parasites. In words: Quantification of LS parasites in P. yoelii-infected Hepa 1-6 cells by manual counting. It is filed as cell-based, Plasmodium yoelii. As to conditions: Serdemetan 10 μM for 24 hours both before and after infection.
For data set [7] the following is noted: reportedly; cited from earlier work.
The test system of data set [8] is Hepa 1-6 cells. As to the kind of experiment: Apoptosis in Hepa 1-6 cells (data not shown). It is filed as cell-based.

Entries after “also recorded” stand apart in the source; their conditions may differ. Like-named read-outs stand apart in the source and are kept apart here.

`CC1(C)CCC(CN2CCN(c3ccc(C(=O)NS(=O)(=O)c4ccc(NCC5CCOCC5)c([N+](=O)[O-])c4)c(Oc4cnc5[nH]ccc5c4)c3)CC2)=C(c2ccc(Cl)cc2)C1` [ABT-199]: the LS burden entry in the data set with P. yoelii LS parasites [1] was “minimal decrease; also recorded: did not reduce LS burden”.
Take `CN(C)CC[C@H](CSc1ccccc1)Nc1ccc(S(=O)(=O)NC(=O)c2ccc(N3CCN(Cc4ccccc4-c4ccc(Cl)cc4)CC3)cc2)cc1[N+](=O)[O-]` [ABT-737]: in the data set on P. yoelii LS parasites [1], the LS burden entry is listed as “efficiently eliminates parasites” and the “effect of adding pan-caspase inhibitor qVD-OPh on the LS reduction by the drug” value is “almost completely reversed”. Also, in the data set with p53, the p53 protein levels entry is listed as “do not increase p53 levels”. Also, the “uninfected hepatoma cell death” value with Hepa 1-6 cells [2] is on record as “no increase”.
`COc1ccc(C2=N[C@@H](c3ccc(Cl)cc3)[C@@H](c3ccc(Cl)cc3)N2C(=O)N2CCNC(=O)C2)c(OC(C)C)c1` [Nutlin-3]: the “liver stage parasites eliminated” value with P. yoelii LS parasites [1] (Nutlin-3 20 μM, 48 hours) was 97%. The “effect of adding pan-caspase inhibitor qVD-OPh on the LS reduction by the drug” value in the data set on P. yoelii LS parasites [1] is reported as “completely unaltered”. For the same compound, the p53 protein levels result in the data set with p53 was “substantially boosted”. The “uninfected hepatoma cell death” value in the data set with Hepa 1-6 cells [2] is “no increase”. Besides, the onset of patency result is given as “delay in the onset of patency” in the data set with P. yoelii [3]; “highly effective” in the data set with P. yoelii [4] (cre-Alb (wild-type p53) mice, 200 mg/kg twice daily oral gavage); “did not delay the onset of patency” in the data set with P. yoelii [4] (liver-specific p53 knockout mice (p53-flox/cre-Alb), 200 mg/kg twice daily).
As for `COC1=CC(c2cc3ccccc3[nH]2)=N/C1=C\c1[nH]c(C)cc1C` [Obatoclax], in the data set with Hepa 1-6 cells [2], the “uninfected hepatoma cell death” value was “no increase”. Further, the tolerability in humans result in data set [5] (human, in vivo) is reported as “well-tolerated”.
Consider `c1ccc2c(CCNc3ccc(Nc4ccncc4)cc3)c[nH]c2c1` [Serdemetan], for which the “P. yoelii LS burden versus Serdemetan concentration” value in the data set on P. yoelii LS parasites [1] (48 hours) was “dose-dependent manner”. Besides, the LS-infected hepatocytes eliminated result with P. yoelii LS parasites [1] (in vitro, half the dose of Nutlin-3) is on record as “more than 90%”. Further, the “effect of adding pan-caspase inhibitor qVD-OPh on the LS reduction by the drug” value in the data set on P. yoelii LS parasites [1] is given as “did not reverse”. Moreover, in the data set on p53, the p53 protein levels result is “substantially boosted”. Besides, the LS parasites result in the data set on P. yoelii LS parasites [6] was “completely eliminated”. The “toxicity compared with Nutlin-3” value in data set [7] was “lower toxicity”. In addition, the tolerability in humans result in [5] (clinical trials) is on record as “well-tolerated”.
As for `CC(C)[C@H](NC(=O)c1ccc2ccccc2n1)C(=O)N[C@@H](CC(=O)O)C(=O)COc1c(F)cccc1F` [qVD-OPh, N-(2-Quinolyl)-L-valyl-L-aspartyl-(2,6-difluorophenoxy) methylketone], the “apoptosis in Hepa 1-6 cells” value in the data set on Hepa 1-6 cells [8] is listed as “reverses nearly all apoptosis”.
